Laboratory results published in patent US20230265151A1, “GIP/GLP1 CO-AGONIST COMPOUNDS” (priority 2020, published 2023).
Read-outs that look alike come from different tables or passages of the source.

What was measured:
[1] = target: T1, human GLP-1 receptor (hGLP-1R) (Homo sapiens, UniProt P43220); assay: [125I]-GLP-1 binding, SPA with membranes of HEK293 cells expressing hGLP-1R
T1 construct: expressed in transfected cells; crude membranes

[2] = target: hGLP-1R (Homo sapiens, UniProt P43220); assay: Functional cAMP formation (HTRF) in HEK-293 clonal cells expressing hGLP-1R, 0.1% bovine casein, without or with 1.0% human serum albumin; type: cell-based; parameters: expressed in transfected cells; conditions: for EC50: 37° C., geometric mean; for Emax: percent of maximal response to GLP-1(7-36)NH2
Chain of hGLP-1R (P43220 24-463): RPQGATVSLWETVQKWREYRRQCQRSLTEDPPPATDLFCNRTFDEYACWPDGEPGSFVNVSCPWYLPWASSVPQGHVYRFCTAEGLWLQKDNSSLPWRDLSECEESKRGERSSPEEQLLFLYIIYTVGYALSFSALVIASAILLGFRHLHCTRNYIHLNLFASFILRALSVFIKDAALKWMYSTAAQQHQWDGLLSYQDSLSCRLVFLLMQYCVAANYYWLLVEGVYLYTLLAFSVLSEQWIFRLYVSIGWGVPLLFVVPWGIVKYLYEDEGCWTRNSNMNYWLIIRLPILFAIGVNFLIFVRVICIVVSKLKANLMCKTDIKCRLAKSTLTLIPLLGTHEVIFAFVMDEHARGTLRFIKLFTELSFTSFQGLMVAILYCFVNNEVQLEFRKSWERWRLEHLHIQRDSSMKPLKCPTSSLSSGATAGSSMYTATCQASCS
Procedure, shortened: (§1)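 Cells were stimulated with peptide for 30 min at 37° C, then intracellular cAMP was measured by competitive HTRF (665/620 nm ratio) and converted to nM using a cAMP standard curve. Relative EC50 and Emax came from four-parameter logistic fits of percent maximal response against peptide concentration.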

[3] = target: T2, hGCGR (Homo sapiens, UniProt P47871); assay: Functional cAMP formation (HTRF) in HEK-293 clonal cells expressing hGCGR, 0.1% bovine casein, without or with 1.0% human serum albumin; type: cell-based
T2 construct: expressed in transfected cells
T2 sequence (P47871 26-477): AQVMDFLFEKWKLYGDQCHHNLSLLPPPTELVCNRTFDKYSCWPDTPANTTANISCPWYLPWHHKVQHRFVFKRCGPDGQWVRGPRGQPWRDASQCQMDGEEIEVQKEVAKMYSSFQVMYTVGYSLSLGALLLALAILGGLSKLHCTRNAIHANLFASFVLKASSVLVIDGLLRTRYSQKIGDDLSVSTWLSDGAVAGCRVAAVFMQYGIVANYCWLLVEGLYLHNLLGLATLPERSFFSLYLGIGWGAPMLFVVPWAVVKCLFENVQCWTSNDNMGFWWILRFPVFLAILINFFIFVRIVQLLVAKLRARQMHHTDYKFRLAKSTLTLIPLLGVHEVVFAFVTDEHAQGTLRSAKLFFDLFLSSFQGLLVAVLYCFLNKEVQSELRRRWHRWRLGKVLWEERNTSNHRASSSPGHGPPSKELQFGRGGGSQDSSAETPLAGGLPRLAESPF
Procedure, shortened: as §1

[4] = target: T3, hGIPR (Homo sapiens, UniProt P48546); assay: Functional cAMP formation (HTRF) in HEK-293 clonal cells expressing hGIPR, 0.1% bovine casein, without or with 1.0% human serum albumin; type: cell-based
T3 construct: expressed in transfected cells
T3 sequence (P48546 22-466): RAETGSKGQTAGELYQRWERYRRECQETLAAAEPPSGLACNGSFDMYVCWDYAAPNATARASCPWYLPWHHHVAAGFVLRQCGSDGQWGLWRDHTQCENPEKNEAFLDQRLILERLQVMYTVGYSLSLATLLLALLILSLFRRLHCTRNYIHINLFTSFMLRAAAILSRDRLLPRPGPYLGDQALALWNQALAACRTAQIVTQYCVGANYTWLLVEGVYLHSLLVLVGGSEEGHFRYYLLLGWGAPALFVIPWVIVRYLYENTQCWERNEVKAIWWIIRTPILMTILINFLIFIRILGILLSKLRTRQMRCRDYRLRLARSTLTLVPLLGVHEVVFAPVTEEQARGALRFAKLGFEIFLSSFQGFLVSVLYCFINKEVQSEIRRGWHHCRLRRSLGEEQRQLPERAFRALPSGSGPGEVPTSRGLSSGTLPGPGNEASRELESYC
Procedure, shortened: as §1

[5] = HEK293, read-out: hGLP-1R Emax, % ± SEM, cAMP, 37° C., 0.1% bovine casein, arithmetic mean
[6] = hGLP-1R EC50, nM (SEM, n), cAMP, 0.1% bovine casein (no human serum albumin)
[7] = hGCGR EC50, nM (SEM, n), cAMP, 37° C., 0.1% bovine casein (no human serum albumin), geometric mean
[8] = hGCGR EC50, nM (SEM, n), cAMP, 37° C., 0.1% bovine casein and 1.0% human serum albumin, geometric mean (SEM, n)
[9] = HEK293, read-out: hGIPR Emax, % ± SEM, cAMP, 37° C., 0.1% bovine casein and 1.0% human serum albumin, percent of maximal response to GIP(1-42)NH2
[10] = hGIPR EC50, nM (SEM, n), cAMP, 37° C., 0.1% bovine casein (no human serum albumin), geometric mean

T1 sequence (P43220 24-463): as the sequence (P43220 24-463) above

| Structure (SMILES) | Ki [1] [nM] | Emax [2, 5] [%] | EC50 [2, 6] [nM] | EC50 [3, 7] [nM] | EC50 [3, 8] [nM] | Emax [4, 9] [%] | EC50 [4, 10] [nM] | other results |
| --- | --- | --- | --- | --- | --- | --- | --- | --- |
| CCCCCCCCCCCCCCCC(=O)N[C@@H](CCC(=O)NCCOCCOCC(=O)NCCOCCOCC(=O)NCCCC[C@H](NC(=O)[C@H](CCCN)NC(=O)[C@H](CC(=O)O)NC(=O)[C@H](CC(C)C)NC(=O)[C@](C)(CC(C)C)NC(=O)[C@@H](NC(=O)[C@H](CO)NC(=O)[C@H](Cc1ccncc1)NC(=O)[C@H](CC(=O)O)NC(=O)[C@H](CO)NC(=O)[C@@H](NC(=O)[C@](C)(Cc1ccccc1F)NC(=O)[C@@H](NC(=O)CNC(=O)[C@H](CCC(=O)O)NC(=O)C(C)(C)NC(=O)[C@@H](N)Cc1ccc(O)cc1)[C@@H](C)O)[C@@H](C)O)[C@@H](C)CC)C(=O)N[C@@H](C)C(=O)N[C@@H](CCC(N)=O)C(=O)NC(C)(C)C(=O)N[C@@H](CCC(=O)O)C(=O)N[C@@H](Cc1ccccc1)C(=O)N[C@H](C(=O)N[C@@H](CCCCNC(=O)COCCOCCNC(=O)COCCOCCNC(=O)CC[C@H](NC(=O)CCCCCCCCCCCCCCC)C(=O)O)C(=O)N[C@@](C)(Cc1ccc(O)cc1)C(=O)N[C@@H](CC(C)C)C(=O)N[C@H](C(=O)N[C@@H](CCC(=O)O)C(=O)NCC(=O)NCC(=O)N1CCC[C@H]1C(=O)N[C@@H](CO)C(=O)N[C@@H](CO)C(=O)NCC(=O)N[C@@H](C)C(=O)N1CCC[C@H]1C(=O)N1CCC[C@H]1C(=O)N1CCC[C@H]1C(=O)N[C@@H](CO)C(N)=O)[C@@H](C)CC)[C@@H](C)CC)C(=O)O [Example 22] | 0.301 |  |  |  |  |  |  | EC50 ([2]; hGLP-1R EC50, nM (SEM, n), 0.1% bovine casein and 1.0% human serum albumin): 1.5 nM; EC50 ([3]; hGCGR EC50, nM (SEM, n), 0.1% bovine casein and 1.0% human serum albumin, 37° C., geometric mean): > 9950 nM; EC50 ([3]; hGCGR EC50, nM (SEM, n), cAMP, incubated at 37° C., 0.1% bovine casein (no human serum albumin), geometric mean): > 9950 nM; Emax ([4]; HEK293, read-out: hGIPR Emax, % ± SEM, 0.1% bovine casein and 1.0% human serum albumin, 37° C., percent of maximal response to GIP(1-42)NH2): 93.4 ± 0.775%; EC50 ([4]; hGIPR EC50, nM (SEM, n), 0.1% bovine casein and 1.0% human serum albumin, 37° C., geometric mean): 0.533 nM |
| CCCCCCCCCCCC(=O)N[C@@H](CCC(=O)NCCOCCOCC(=O)NCCCC[C@H](NC(=O)CNC(=O)CNC(=O)[C@H](CCC(=O)O)NC(=O)[C@@H](NC(=O)[C@H](CC(C)C)NC(=O)[C@](C)(Cc1ccc(O)cc1)NC(=O)[C@@H](CCC(=O)O)NC(=O)[C@@H](NC(=O)[C@H](Cc1ccccc1)NC(=O)[C@H](CCC(=O)O)NC(=O)C(C)(C)NC(=O)[C@H](CCC(N)=O)NC(=O)[C@H](C)NC(=O)[C@H](CCCCNC(=O)COCCOCCNC(=O)CC[C@H](NC(=O)CCCCCCCCCCC)C(=O)O)NC(=O)[C@H](CCCN)NC(=O)[C@H](CC(=O)O)NC(=O)[C@H](CC(C)C)NC(=O)[C@](C)(CC(C)C)NC(=O)[C@@H](NC(=O)[C@H](CO)NC(=O)[C@H](Cc1ccncc1)NC(=O)[C@H](CC(=O)O)NC(=O)[C@H](CO)NC(=O)[C@@H](NC(=O)[C@](C)(Cc1ccccc1F)NC(=O)[C@@H](NC(=O)CNC(=O)[C@H](CCC(=O)O)NC(=O)C(C)(C)NC(=O)[C@@H](N)Cc1ccc(O)cc1)[C@@H](C)O)[C@@H](C)O)[C@@H](C)CC)[C@@H](C)CC)[C@@H](C)CC)C(=O)N[C@@H](CO)C(=O)N[C@@H](CO)C(=O)NCC(=O)N[C@@H](C)C(=O)N1CCC[C@H]1C(=O)N1CCC[C@H]1C(=O)N1CCC[C@H]1C(=O)N[C@@H](CO)C(N)=O)C(=O)O [Example 14] |  |  |  |  |  |  |  | Ki ([1]; human GLP-1R, geometric mean (SEM, n), read-out: Binding Affinity Ki, nM (SEM, n) hGLP-1R): 0.286 nM; EC50 ([2]; 0.1% bovine casein and 1.0% human serum albumin, read-out: hGLP-1R EC50, nM (SEM, n)): 9.19 nM; EC50 ([3]; 0.1% bovine casein and 1.0% human serum albumin, 37° C., geometric mean, read-out: hGCGR EC50, nM (SEM, n)): > 9950 nM; EC50 ([3]; cAMP, incubated at 37° C., 0.1% bovine casein (no human serum albumin), geometric mean, read-out: hGCGR EC50, nM (SEM, n)): > 9950 nM; EC50 ([4]; 0.1% bovine casein and 1.0% human serum albumin, 37° C., geometric mean, read-out: hGIPR EC50, nM (SEM, n)): 0.769 nM; Emax ([4]; HEK293, 0.1% bovine casein and 1.0% human serum albumin, 37° C., percent of maximal response to GIP(1-42)NH2, read-out: hGIPR Emax, % ± SEM): 89.5 ± 1.02%; Emax ([4]; HEK293, percent of maximal response to GIP(1-42)NH2, 37° C., 0.1% bovine casein, arithmetic mean, read-out: hGIPR Emax, % ± SEM): 95 ± 2.32% |
| CC[C@H](C)[C@H](NC(=O)[C@H](CC(C)C)NC(=O)[C@](C)(Cc1ccc(O)cc1)NC(=O)[C@@H](CCC(=O)O)NC(=O)[C@@H](NC(=O)[C@H](Cc1ccccc1)NC(=O)[C@H](CCC(=O)O)NC(=O)C(C)(C)NC(=O)[C@H](CCC(N)=O)NC(=O)[C@H](C)NC(=O)[C@H](CCCCNC(=O)COCCOCCNC(=O)CC[C@H](NC(=O)CCCCCCCCCOc1ccc(C(=O)O)cc1)C(=O)O)NC(=O)[C@H](CCCN)NC(=O)[C@H](CC(=O)O)NC(=O)[C@H](CC(C)C)NC(=O)[C@](C)(CC(C)C)NC(=O)[C@@H](NC(=O)C(C)(C)NC(=O)[C@H](Cc1ccncc1)NC(=O)[C@H](CC(=O)O)NC(=O)[C@H](CO)NC(=O)[C@@H](NC(=O)[C@](C)(Cc1ccccc1F)NC(=O)[C@@H](NC(=O)CNC(=O)[C@H](CCC(=O)O)NC(=O)C(C)(C)NC(=O)[C@@H](N)Cc1ccc(O)cc1)[C@@H](C)O)[C@@H](C)O)[C@@H](C)CC)[C@@H](C)CC)C(=O)N[C@@H](CCCCNC(=O)COCCOCCNC(=O)CC[C@H](NC(=O)CCCCCCCCCOc1ccc(C(=O)O)cc1)C(=O)O)C(=O)NCC(=O)NCC(=O)N1CCC[C@H]1C(=O)N[C@@H](CO)C(=O)N[C@@H](CO)C(=O)NCC(=O)N[C@@H](C)C(=O)N1CCC[C@H]1C(=O)N1CCC[C@H]1C(=O)N1CCC[C@H]1C(=O)N[C@@H](CO)C(N)=O [Example 361] | 1.22 | 98.2 | 0.58 | > 9950 | > 9950 | 88.8 | 0.0121 | Emax ([2]; HEK293, read-out: hGLP-1R Emax, % ± SEM, cAMP, 37° C., 0.1% bovine casein and 1.0% human serum albumin): 98.8%; EC50 ([4]; hGIPR EC50, nM (SEM, n), cAMP, 37° C., 0.1% bovine casein and 1.0% human serum albumin, geometric mean (SEM, n)): 1.44 nM |
| CC[C@H](C)[C@H](NC(=O)[C@H](CC(C)C)NC(=O)[C@](C)(Cc1ccc(O)cc1)NC(=O)[C@H](CCCCNC(=O)COCCOCCNC(=O)CC[C@H](NC(=O)COCCOCCNC(=O)CC[C@H](NC(=O)CCCCCCCCCOc1ccc(C(=O)O)cc1)C(=O)O)C(=O)O)NC(=O)[C@@H](NC(=O)[C@H](Cc1ccccc1)NC(=O)[C@H](CCCN)NC(=O)C(C)(C)NC(=O)[C@H](CCC(N)=O)NC(=O)[C@H](C)NC(=O)[C@H](CCC(N)=O)NC(=O)[C@H](CCCN)NC(=O)[C@H](CC(=O)O)NC(=O)[C@H](CC(C)C)NC(=O)[C@](C)(CC(C)C)NC(=O)[C@@H](NC(=O)C(C)(C)NC(=O)[C@H](Cc1ccncc1)NC(=O)[C@H](CC(=O)O)NC(=O)[C@H](CO)NC(=O)[C@@H](NC(=O)[C@](C)(Cc1ccccc1F)NC(=O)[C@@H](NC(=O)CNC(=O)[C@H](CCC(=O)O)NC(=O)C(C)(C)NC(=O)[C@@H](N)Cc1ccc(O)cc1)[C@@H](C)O)[C@@H](C)O)[C@@H](C)CC)[C@@H](C)CC)C(=O)N[C@@H](CCCCNC(=O)COCCOCCNC(=O)CC[C@H](NC(=O)COCCOCCNC(=O)CC[C@H](NC(=O)CCCCCCCCCOc1ccc(C(=O)O)cc1)C(=O)O)C(=O)O)C(=O)NCC(=O)NCC(=O)N1CCC[C@H]1C(=O)N[C@@H](CO)C(=O)N[C@@H](CO)C(=O)NCC(=O)N[C@@H](C)C(=O)N1CCC[C@H]1C(=O)N1CCC[C@H]1C(=O)N1CCC[C@H]1C(=O)N[C@@H](CO)C(N)=O [Example 485] | 0.3 | 115 | 0.153 | > 10100 | > 9950 | 93.8 | 0.0113 |  |
